According to patent US6177404A (Merck & Co., Inc., priority 1998, dated 2001):

Tested on: free PSA
Test: not given
Conditions: not given

**Q.** With “Ac-AlaAsnLysSerTyrGln.vertline.SerSerThrGlu-amide” as the compound, how does the cleaved bond read?
**A.** Gln-Ser

**Q.** With “Ac-AlaAsnGluIleSerTyrGln.vertline.SerAlaSerThrGlu-amide” as the compound, how does the cleaved bond read?
**A.** Gln-Ser

**Q.** Which cleaved bond does the source give for “Ac-AlaAsnLysAlaSerTyrGln.vertline.SerAlaSerThrGlu-amide” here?
**A.** Gln-Ser

**Q.** How did the cleaved bond turn out when “Ac-AlaSerTyrGln.vertline.SerSerSerThrGlu-amide” was run?
**A.** Gln-Ser

**Q.** “Ac-SerTyrGln.vertline.SerSerSerThrGlu-amide” was tested. Which cleaved bond did it give?
**A.** Gln-Ser

**Q.** Which cleaved bond does the source give for Ac-hArgTyrGln.vertline.SerSerSer(MeLeu) here?
**A.** Gln-Ser

**Q.** “Ac-AlaSerTyrGln.vertline.SerSerThrGlu-amide” was tested. Which cleaved bond did it give?
**A.** Gln-Ser

**Q.** For “Ac-AlaAsnLysIleSerTyrGln.vertline.SerSerSerThrLeu-amide”, which cleaved bond is on record?
**A.** Gln-Ser

**Q.** How did the cleaved bond turn out when “Ac-AlaAspLysAlaLysTyrGln.vertline.SerSer(Cha)-NHNH2” was run?
**A.** Gln-Ser

**Q.** How did the cleaved bond turn out when “AlaAsnLysIleSerTyrGln.vertline.SerSerSerThrGlu-amide” was run?
**A.** Gln-Ser

**Q.** “Ac-AsnLysIleSerTyrGln.vertline.SerSer-amide” was tested. Which cleaved bond did it give?
**A.** Gln-Ser

**Q.** With “Ac-AlaAsnLysIleSerTyrGln.vertline.SerAlaLysThrGlu-amide” as the compound, how does the cleaved bond read?
**A.** Gln-Ser

**Q.** Which cleaved bond does the source give for “Ac-AlaAsnLysIleSerTyrGln.vertline.SerSerLysThrGlu-amide” here?
**A.** Gln-Ser

**Q.** For “Ac-AlaAsnLysIleSerTyrGln.vertline.SerAlaSerThrGlu-amide”, which cleaved bond is on record?
**A.** Gln-Ser

**Q.** Which cleaved bond does the source give for “Ac-AlaAsnLysIleSerTyrGln.vertline.SerSerSerThrGlu-amide” here?
**A.** Gln-Ser

**Q.** With “Ac-AlaAsnLysIleSerTyrTyr.vertline.SerAlaSerThrGlu-amide” as the compound, how does the cleaved bond read?
**A.** Tyr-Ser

**Q.** Which cleaved bond does the source give for “Ac-hArgTyrGln.vertline.SerSerSer(Ethylester-Leu)” here?
**A.** Gln-Ser

**Q.** “Ac-AlaAsnLysIleSerTyrTyr.vertline.SerSerSerThrGlu-amide” was tested. Which cleaved bond did it give?
**A.** Tyr-Ser

**Q.** Which cleaved bond does the source give for “Ac-AlaSerTyrGln.vertline.SerSerLeu-amide” here?
**A.** Gln-Ser

**Q.** “Ac-AlaAsnSerTyrGln.vertline.SerSerSerThrGlu-amide” was tested. Which cleaved bond did it give?
**A.** Gln-Ser

**Q.** “Ac-SerTyrGln.vertline.SerSerThrGlu-amide” was tested. Which cleaved bond did it give?
**A.** Gln-Ser

**Q.** Which cleaved bond does the source give for “Ac-LysIleSerTyrGln.vertline.SerSer-amide” here?
**A.** Gln-Ser

**Q.** “Ac-AlaAsnLysIleSerTyrGln.vertline.SerSerSerThrLeu” was tested. Which cleaved bond did it give?
**A.** Gln-Ser

**Q.** Which cleaved bond does the source give for “Ac-AlaAsnLysIleSerTyrGln.vertline.SerThrGlu-amide” here?
**A.** Gln-Ser

**Q.** For “Ac-hArg(Cha)Gln.vertline.SerSerSer(ethylester-Leu)”, which cleaved bond is on record?
**A.** Gln-Ser

**Q.** “Ac-AlaAsnLysAlaSerTyrGln.vertline.SerAlaSerCys-amide” was tested. Which cleaved bond did it give?
**A.** Gln-Ser

**Q.** “Ac-AlaAsnLysIleSerTyrGln.vertline.SerSerThrGlu-amide” was tested. Which cleaved bond did it give?
**A.** Gln-Ser

**Q.** For “Ac-AlaAsnLysIleSerTyrGln.vertline.SerSerGlnThrGlu-amide”, which cleaved bond is on record?
**A.** Gln-Ser

Tested on: LNCaP prostate tumor cells
Test: In vitro Alamar Blue cytotoxicity assay of non-cleavable oligopeptide-doxorubicin conjugates
Assay type: cell-based, human
Conditions: FIG. 4 legend, cells incubated 3 days at 37° C., cell line not named in legend (LNCaP or DuPRO in method)
Procedure: The cytotoxicities of the non-cleaveable oligopeptide-doxorubicin conjugates, prepared as described in Example 4, against a line of cells which is known to be killed by unmodified doxorubicin were assessed with an Alamar Blue assay. Specifically, cell cultures of LNCaP prostate tumor cells, which are a human metastatic prostate adenocarcinoma isolated from a needle biopsy of a lymph node (LNCaP.FGC: American Type Culture Collection, ATCC CRL 1740), or DuPRO cells in 96 well plates were diluted with medium containing various concentrations of a given conjugate (final plate well volume of 200 μl). The cells were incubated for 3 days at 37° C. and then 20 μl of Alamar Blue was added to the assay well. The cells were further incubated and the assay plates were read on a EL-310 ELISA reader at the dual wavelengths of 570 and 600 nm at 4 and 7 hours after addition of Alamar Blue. Relative percentage viability at the various concentration of conjugate tested was then calculated versus control (no conjugate) cultures. Cytotoxicities of unmodified doxorubicin and unmodified oligopeptide were also assessed.

**Q.** Which EC50 does the source give for `COc1cccc2c1C(=O)c1c(O)c3c(c(O)c1C2=O)C[C@@](O)(C(=O)CO)C[C@@H]3O[C@H]1C[C@H](N)[C@H](O)[C@H](C)O1` [doxorubicin] here?
**A.** 300 nM
